Each block holds one compound with its values, some of them ahead of it. The source made the active and inactive calls.
How the values were obtained:
[1] = Fluorescence-based cell-based high throughput dose response assay for inhibitors of the interaction of nucleotide-binding oligomerization domain containing 2 (NOD2) and the receptor-interacting serine-threonine kinase 2 (RIPK2).; format: functional; settings: Homo sapiens
[2] = molecular target: Beta-2 adrenergic receptor (Homo sapiens, UniProt P07550); assay: beta2AR agonists driving receptor internalization, dose response, cell-based, FAP fluorogen, flow cytometry, cherry pick 1 (AID 588763); format: functional
[3] = molecular target: T1, Small ubiquitin-related modifier 1 (Homo sapiens, UniProt P63165); assay: inhibitors of SUMO1 peptide binding, dose response, biochemical, fluorescence polarization, uHTS hits (AID 624382); format: functional; settings: read-out: IC50_Mean
[4] = molecular target: T1, Small ubiquitin-related modifier 1; assay: inhibitors of SUMO1 partner interactions, dose response, biochemical, FRET (AID 624383); format: functional; settings: read-out: IC50_Mean
[5] = molecular target: Nuclear receptor subfamily 5 group A member 2 (Homo sapiens, UniProt O00482); format: functional, cell-based;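 also: HEK293T cells transfected with LRH-1 and a StAR promoter luciferase reporter; potency for inhibitors that lower LRH-1 driven reporter light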
[6] = StAR promoter reporter inhibition counter-screen, dose response, counter-screen for LRH-1 inverse agonist project, cell-based, luminescence, luciferase reporter (AID 651969); format: functional
Steroidogenic factor 1 = Steroidogenic factor 1 (Homo sapiens, UniProt Q13285); assay: Counterscreen for inverse agonists of the liver receptor homolog-1 (LRH-1; NR5A2): Luminescence-based cell-based high throughput dose response assay to identify inverse agonists of the Steroidogenic Factor 1 Nuclear Receptor (SF1; NR5A1).; format: functional
[7] = HEK293T cell cytotoxicity, dose response, cytotoxicity control for HIV Vif inhibitor project, cherry-picks (AID 652208); format: functional, cell-based
Vero = assay: Vero cell toxicity, dose response, cytotoxicity control, plate reader, cherry-pick samples (AID 687020); format: functional, cell-based; settings: Chlorocebus sabaeus
[8] = molecular target: Neuropeptides B/W receptor type 1 (Homo sapiens, UniProt P48145); assay: GPR7 antagonist potency, late-stage follow-up, cell-based, fluorescence, dose response, set 5 (AID 588566); format: functional
[9] = molecular target: Melanin-concentrating hormone receptor 1 (Homo sapiens, UniProt Q99705); assay: Late-stage fluorescence-based counterscreen for antagonists of the G-protein coupled receptor 7 (GPR7): cell-based dose response assay to identify antagonists of the melanin-concentrating hormone receptor 1 (MCHR1) Set 5.; format: functional
[10] = molecular target: T2, Apoptotic protease-activating factor 1 (Homo sapiens, UniProt O14727); assay: SAR analysis of small molecule Activators of Apaf-1 in a Fluorescent assay.; format: functional; settings: read-out: EC50_Mean;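 also: caspase-3 cleavage of fluorogenic Rh110 DEVD substrate downstream of apoptosome activation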
T2 sequence (O14727 whole entry): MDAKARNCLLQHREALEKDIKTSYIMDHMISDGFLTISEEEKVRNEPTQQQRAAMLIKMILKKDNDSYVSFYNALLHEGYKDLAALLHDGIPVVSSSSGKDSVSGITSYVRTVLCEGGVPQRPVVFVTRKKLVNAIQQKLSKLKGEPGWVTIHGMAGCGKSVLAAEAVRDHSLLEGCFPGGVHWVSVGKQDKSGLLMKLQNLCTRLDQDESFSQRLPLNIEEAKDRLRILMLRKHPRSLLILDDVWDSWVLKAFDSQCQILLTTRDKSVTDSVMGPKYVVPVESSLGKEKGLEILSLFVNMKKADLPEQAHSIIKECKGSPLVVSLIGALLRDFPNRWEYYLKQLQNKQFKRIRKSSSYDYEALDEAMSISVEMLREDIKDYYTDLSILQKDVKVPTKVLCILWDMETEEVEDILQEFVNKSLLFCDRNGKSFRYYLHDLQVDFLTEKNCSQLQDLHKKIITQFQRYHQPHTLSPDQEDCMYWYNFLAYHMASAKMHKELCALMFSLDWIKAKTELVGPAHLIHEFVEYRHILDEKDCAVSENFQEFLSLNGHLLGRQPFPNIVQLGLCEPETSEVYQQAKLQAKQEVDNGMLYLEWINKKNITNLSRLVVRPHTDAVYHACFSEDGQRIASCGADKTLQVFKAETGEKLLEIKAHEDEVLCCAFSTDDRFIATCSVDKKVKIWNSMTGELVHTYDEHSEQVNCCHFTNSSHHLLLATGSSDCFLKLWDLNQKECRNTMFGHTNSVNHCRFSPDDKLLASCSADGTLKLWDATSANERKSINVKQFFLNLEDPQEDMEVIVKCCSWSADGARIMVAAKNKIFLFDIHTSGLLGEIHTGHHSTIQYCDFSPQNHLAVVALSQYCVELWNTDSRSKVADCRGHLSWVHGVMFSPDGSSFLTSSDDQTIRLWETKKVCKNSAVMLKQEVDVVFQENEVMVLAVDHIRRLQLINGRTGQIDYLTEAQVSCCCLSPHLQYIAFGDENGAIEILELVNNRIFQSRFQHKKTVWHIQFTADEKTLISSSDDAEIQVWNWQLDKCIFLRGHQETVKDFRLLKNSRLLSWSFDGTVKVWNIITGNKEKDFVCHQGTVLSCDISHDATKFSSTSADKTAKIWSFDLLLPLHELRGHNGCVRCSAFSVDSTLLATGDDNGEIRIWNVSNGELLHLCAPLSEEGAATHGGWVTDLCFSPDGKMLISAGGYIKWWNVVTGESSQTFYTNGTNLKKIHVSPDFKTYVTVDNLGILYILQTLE

Melanin-concentrating hormone receptor 1, sequence (Q99705 whole entry): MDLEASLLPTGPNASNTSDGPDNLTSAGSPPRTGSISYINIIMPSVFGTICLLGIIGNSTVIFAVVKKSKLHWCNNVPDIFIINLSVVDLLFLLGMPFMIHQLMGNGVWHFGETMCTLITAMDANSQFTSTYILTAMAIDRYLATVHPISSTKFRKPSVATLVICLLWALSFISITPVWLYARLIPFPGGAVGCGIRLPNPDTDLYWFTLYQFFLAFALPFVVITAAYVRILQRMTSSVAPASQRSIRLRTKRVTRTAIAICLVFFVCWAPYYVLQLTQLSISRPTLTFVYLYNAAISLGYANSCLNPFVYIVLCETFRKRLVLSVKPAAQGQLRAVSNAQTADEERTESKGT
Neuropeptides B/W receptor type 1, sequence (P48145 whole entry): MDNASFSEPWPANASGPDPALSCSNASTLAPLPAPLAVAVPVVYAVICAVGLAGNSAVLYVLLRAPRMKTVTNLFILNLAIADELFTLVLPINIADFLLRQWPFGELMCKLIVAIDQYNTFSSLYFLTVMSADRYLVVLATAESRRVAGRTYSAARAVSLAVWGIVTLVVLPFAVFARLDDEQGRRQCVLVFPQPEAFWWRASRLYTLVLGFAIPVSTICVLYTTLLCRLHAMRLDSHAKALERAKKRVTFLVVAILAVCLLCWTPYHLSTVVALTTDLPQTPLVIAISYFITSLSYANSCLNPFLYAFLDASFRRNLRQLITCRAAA
T1 sequence (P63165 whole entry): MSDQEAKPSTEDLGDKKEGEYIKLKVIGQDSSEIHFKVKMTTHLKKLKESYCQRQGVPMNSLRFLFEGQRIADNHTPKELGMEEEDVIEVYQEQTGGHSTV
Nuclear receptor subfamily 5 group A member 2, sequence (O00482 whole entry): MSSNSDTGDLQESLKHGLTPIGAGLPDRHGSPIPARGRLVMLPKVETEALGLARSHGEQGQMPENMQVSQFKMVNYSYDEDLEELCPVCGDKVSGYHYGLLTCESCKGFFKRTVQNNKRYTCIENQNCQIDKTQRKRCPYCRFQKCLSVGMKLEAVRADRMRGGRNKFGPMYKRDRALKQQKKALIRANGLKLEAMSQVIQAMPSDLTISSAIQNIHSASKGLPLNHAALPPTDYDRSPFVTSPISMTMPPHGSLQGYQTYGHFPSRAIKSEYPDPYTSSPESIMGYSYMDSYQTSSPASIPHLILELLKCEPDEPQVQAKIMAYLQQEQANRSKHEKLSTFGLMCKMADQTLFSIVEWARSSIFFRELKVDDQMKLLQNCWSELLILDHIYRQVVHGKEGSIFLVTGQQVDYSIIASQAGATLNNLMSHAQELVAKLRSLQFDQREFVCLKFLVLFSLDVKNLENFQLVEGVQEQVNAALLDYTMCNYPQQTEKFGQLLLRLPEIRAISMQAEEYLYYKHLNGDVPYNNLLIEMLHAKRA
Steroidogenic factor 1, sequence (Q13285 whole entry): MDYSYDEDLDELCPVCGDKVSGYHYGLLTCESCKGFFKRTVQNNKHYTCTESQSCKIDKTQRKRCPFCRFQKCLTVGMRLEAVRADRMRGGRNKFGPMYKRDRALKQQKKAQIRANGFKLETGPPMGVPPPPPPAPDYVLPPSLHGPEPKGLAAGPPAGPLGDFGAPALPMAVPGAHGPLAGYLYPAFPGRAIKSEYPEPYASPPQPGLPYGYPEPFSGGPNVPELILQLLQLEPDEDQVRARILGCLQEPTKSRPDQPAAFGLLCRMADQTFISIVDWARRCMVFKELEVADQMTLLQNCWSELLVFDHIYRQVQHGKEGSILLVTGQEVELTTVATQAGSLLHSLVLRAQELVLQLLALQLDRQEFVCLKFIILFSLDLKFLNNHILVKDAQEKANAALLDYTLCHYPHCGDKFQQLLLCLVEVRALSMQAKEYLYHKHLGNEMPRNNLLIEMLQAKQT
Beta-2 adrenergic receptor, sequence (P07550 whole entry): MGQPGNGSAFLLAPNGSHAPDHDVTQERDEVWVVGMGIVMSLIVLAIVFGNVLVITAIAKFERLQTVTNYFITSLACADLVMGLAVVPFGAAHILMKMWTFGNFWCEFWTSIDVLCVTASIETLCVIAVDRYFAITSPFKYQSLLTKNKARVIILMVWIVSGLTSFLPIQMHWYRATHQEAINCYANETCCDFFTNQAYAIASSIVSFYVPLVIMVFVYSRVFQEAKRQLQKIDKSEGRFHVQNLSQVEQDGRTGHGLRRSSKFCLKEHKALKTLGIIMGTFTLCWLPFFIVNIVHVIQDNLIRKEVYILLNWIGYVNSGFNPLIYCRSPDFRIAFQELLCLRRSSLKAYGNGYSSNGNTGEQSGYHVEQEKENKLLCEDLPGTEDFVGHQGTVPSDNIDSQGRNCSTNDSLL

Structure (SMILES): N#Cc1cccc(NC(=O)COC(=O)c2ccccc2C(=O)c2ccc(Cl)c([N+](=O)[O-])c2)c1
IC50 [1]: 1.99 µM (active) | EC50 [2]: 5.27 µM (inactive)

Structure (SMILES): O=C(NCc1ccccn1)c1ccc2c(=O)n3nc(Nc4ccccc4)sc3nc2c1
IC50 [3]: > 66.6 µM (inactive) | IC50 [4]: 8.94 µM (active)

Structure (SMILES): COc1ccc(CCNC(=O)CSc2nc3nc(O)cc(O)c3s2)cc1
IC50 [5]: 97.8 µM (inactive) | IC50 [6]: 35.9 µM (inactive) | IC50 (Steroidogenic factor 1): 6.9 µM (active)

Structure (SMILES): NC(c1csc(Nc2ccc(C(=O)c3ccccc3)cc2)n1)C1CCCCC1 (centres undefined)
AC50 [7]: 26.6 µM (active)

Structure (SMILES): CCCN(CC(=O)Nc1ccccc1C)C(=O)C1CCN(S(=O)(=O)c2ccc(C)c(C)c2)CC1
AC50 (Vero): 13.2 µM (active)

IC50 [8]: > 20 µM (inactive) | IC50 [9]: > 20 µM (inactive)
Structure (SMILES): O=c1c(Oc2ccc3c(c2)OCO3)c(Cl)cnn1C1c2ccccc2-c2ccccc21

IC50 [8]: 15.7 µM (inactive) | IC50 [9]: > 20 µM (inactive)
Structure (SMILES): COc1ccc(Oc2c(Cl)cnn(CC(=O)N(C3CCCCC3)C3CCCCC3)c2=O)cc1

EC50 [10]: > 100 µM (inactive)
Structure (SMILES): CO[C@@H]1CS(=O)(=O)C2C(c3ccc(F)cc3)=NOC21 (some centres undefined)

From ChEMBL document CHEMBL1201862, “PubChem BioAssay data set” (2004)
